Laboratory results from patent US20040132779A1, “Microsomal Triglyceride transfer protein inhibitor” (Pfizer Inc, priority 2002, published 2004).

Test: Reduction of food intake assay
Type: in vivo
Settings: beagles, oral gavage, 0.1, 0.25 or 0.5 mg/kg, Days 0 to 6
Procedure: Reduction of Food Intake Assay
Healthy, young adult (1-3 years of age) male and female beagles (Marshall Farms, North Rose, New York, N.Y. 14516) weighing 13-18 kg at the start of the treatment period are employed as test subjects.
The test compound is provided as a powder. The dosing solution, administered by oral gavage, is provided employing a 70/30 polyethylene glycol 400/water solution as the test vehicle. The dosing solution is prepared at 0.1 to 0.5 mg/ml activity so that 1 ml is delivered per kg body weight at dosages of 0.1 to 0.5 mg/kg. Following a seven day acclimation period, a ten day evaluation study is effected.
The study consists of three groups of animals containing 2 male and 2 female dogs, each. Each group of four animals is randomly assigned to receive 0.1, 0.25 or 0.5 mg/kg test compound. On Days 0 to 6, each dog receives the dosing solution administered as a single dose at Time 0 on each dosing day via a feeding tube. This is followed by a 10 ml water rinse to ensure total delivery of dosing solution. Each test animal is permitted ad libitum access to water and IAMS Mini-Chunks® (The Iams Company, P.O. Box 14597, Dayton, Ohio) dry food each day during the study and approximately 0.5-1 hours post-dose.

For Cc1cc(CNC(=O)[C@@H](NC(=O)C(F)(F)F)c2ccccc2)ccc1NC(=O)c1ccccc1-c1ccc(C(F)(F)F)cc1 [Example 1A-1, (S) 4′-Trifluoromethyl-biphenyl-2-carboxylic Acid (2-methyl-4-{[2-phenyl-2-(2,2,2-trifluoro-acetylamino)-acetylamino]-methyl}-phenyl)-amide], the body weight was “reduction in body weight”, the fecal fat was “increased fecal fat” and the food intake was “reduction in food intake”. For the same compound, the serum cholesterol was “reduction in serum cholesterol”.
